Legend:
Test in all cases: relative viability (nuclei count vs DMSO), 5 days (fraction); higher = more cells survive
Ibrutinib + Pemetrexed = compound: C=CC(=O)N1CCC[C@@H](n2nc(-c3ccc(Oc4ccccc4)cc3)c3c(N)ncnc32)C1 [Ibrutinib] + Nc1nc2[nH]cc(CCc3ccc(C(=O)N[C@@H](CCC(=O)O)C(=O)O)cc3)c2c(=O)[nH]1 [Pemetrexed] (partner 0.2 µM)
Procedure, shortened: (§1)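 Relative viability equals treated-well nuclei counts divided by vehicle-well nuclei counts. Counts came from 4× images of lung cancer cell lines grown in 1536-well plates for 5 days after pin-tool dosing on the day after seeding. Dosing used one drug alone or a fixed anchor-drug dose plus five library-drug doses (not always all listed) in √10 steps, and values are medians of duplicate plates.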

Ibrutinib + AZD7762 = compound: C=CC(=O)N1CCC[C@@H](n2nc(-c3ccc(Oc4ccccc4)cc3)c3c(N)ncnc32)C1 [Ibrutinib] + NC(=O)Nc1cc(-c2cccc(F)c2)sc1C(=O)N[C@H]1CCCNC1 [AZD7762] (partner 0.2 µM)
Procedure, shortened: as §1

BMX-IN-1 + Linsitinib = compound: C=CC(=O)Nc1cc(-n2c(=O)ccc3cnc4ccc(-c5ccc(NS(C)(=O)=O)cc5)cc4c32)ccc1C [BMX-IN-1] + C[C@]1(O)C[C@@H](c2nc(-c3ccc4ccc(-c5ccccc5)nc4c3)c3c(N)nccn32)C1 [Linsitinib] (partner 1 µM)
Procedure, shortened: as §1

PAC-1 + Trametinib = compound: C=CCc1cccc(/C=N/NC(=O)CN2CCN(Cc3ccccc3)CC2)c1O [PAC-1] + CC(=O)Nc1cccc(-n2c(=O)n(C3CC3)c(=O)c3c(Nc4ccc(I)cc4F)n(C)c(=O)c(C)c32)c1 [Trametinib] (partner 0.02 µM)
Procedure, shortened: as §1

Row | Cell Line | relative viability (Ibrutinib + Pemetrexed; first compound 0.005 µM) | relative viability (Ibrutinib + Pemetrexed; first compound 0.01581 µM) | relative viability (Ibrutinib + Pemetrexed; first compound 0.05 µM) | relative viability (Ibrutinib + Pemetrexed; first compound 0.1581 µM) | relative viability (Ibrutinib + Pemetrexed; first compound 0.5 µM) | relative viability (Ibrutinib + AZD7762; first compound 0.005 µM) | relative viability (Ibrutinib + AZD7762; first compound 0.01581 µM) | relative viability (Ibrutinib + AZD7762; first compound 0.05 µM) | relative viability (Ibrutinib + AZD7762; first compound 0.1581 µM) | relative viability (Ibrutinib + AZD7762; first compound 0.5 µM) | relative viability (BMX-IN-1 + Linsitinib; first compound 0.02 µM) | relative viability (BMX-IN-1 + Linsitinib; first compound 0.2 µM) | relative viability (BMX-IN-1 + Linsitinib; first compound 0.6325 µM) | relative viability (BMX-IN-1 + Linsitinib; first compound 2 µM) | relative viability (PAC-1 + Trametinib; first compound 0.02 µM) | relative viability (PAC-1 + Trametinib; first compound 0.06325 µM) | relative viability (PAC-1 + Trametinib; first compound 0.2 µM) | relative viability (PAC-1 + Trametinib; first compound 2 µM)
1 | LU99A | 0.217 | 0.211 | 0.205 | 0.206 | 0.412 | 0.258 | 0.357 | 0.338 | 0.438 | 0.288 | 0.547 | 0.533 | 0.532 | 0.535 | 0.542 | 0.475 | 0.539 | 0.564
2 | LXF-289 | 0.936 | 0.927 | 0.915 | 0.81 | 1.01 | 1.22 | 1.07 | 1.06 | 1.1 | 1.15 | 0.982 | 1.05 | 1.07 | 1.04 | 0.7 | 0.718 | 0.705 | 0.675
3 | NCI-H23 | 0.698 | 0.614 | 0.845 | 0.527 | 0.812 | 0.263 | 0.237 | 0.234 | 0.218 | 0.283 | 0.614 | 0.606 | 0.471 | 0.548 | 0.308 | 0.388 | 0.336 | 0.442
4 | NCI-H322M | 0.659 | 0.572 | 0.605 | 0.537 | 0.536 | 0.432 | 0.527 | 0.514 | 0.486 | 0.502 | 0.911 | 0.971 | 0.891 | 0.975 | 0.498 | 0.575 | 0.542 | 0.503
5 | NCI-H358 | 0.165 | 0.18 | – | 0.171 | 0.16 | 0.404 | 0.349 | 0.282 | 0.515 | 0.29 | 1 | 0.732 | 0.816 | 0.806 | 0.128 | 0.121 | 0.164 | 0.128
6 | NCI-H441 | 0.287 | 0.269 | 0.293 | 0.263 | 0.301 | 1.18 | 1.15 | 1.22 | 1.28 | 0.952 | 0.594 | 0.705 | 0.499 | 0.696 | 0.408 | 0.629 | 0.482 | 0.411
7 | NCI-H460 | 0.0608 | 0.0607 | 0.0632 | 0.0616 | 0.1 | 0.634 | 0.563 | 0.646 | 0.622 | 0.659 | 1.04 | 1.07 | 1.45 | 0.777 | 0.136 | 0.156 | 0.204 | 0.286
8 | NCI-H596 | 0.499 | 0.487 | 0.482 | 0.409 | 0.543 | 0.996 | 1.15 | 1.32 | – | 0.928 | 1.12 | 1.21 | 1.02 | 0.936 | 0.704 | 0.802 | 0.801 | 0.87
9 | NCI-H647 | 0.197 | 0.183 | 0.205 | 0.194 | 0.421 | 0.413 | 0.534 | 0.529 | 0.3 | 0.497 | 1.36 | 1.8 | 1.25 | 1.02 | 0.456 | 0.535 | 0.446 | 0.399
10 | NCI-H650 | 1.03 | 0.881 | 0.885 | 1.15 | 1.1 | 1.02 | 0.858 | 0.94 | 1.15 | 1.02 | 0.839 | 1.09 | 1.02 | 0.858 | 0.871 | 1.02 | 0.933 | 1.27
11 | NCI-H838 | 0.255 | 0.236 | 0.246 | 0.265 | 0.292 | 0.739 | 0.876 | 0.985 | 0.946 | 0.943 | 1.19 | 1.26 | 1.2 | 1.08 | 0.46 | 0.509 | 0.459 | 0.528
12 | NCI-H1355 | – | 0.944 | 0.987 | 1.06 | 0.951 | – | 0.768 | 0.846 | 0.9 | 0.72 | 0.873 | 0.827 | 0.867 | 0.853 | 0.464 | 0.467 | 0.416 | 0.419
13 | NCI-H1395 | 0.752 | 0.934 | 0.804 | 0.797 | 1.07 | 0.405 | 0.403 | 0.387 | 0.404 | 0.413 | 0.975 | 1 | 1.11 | 1.08 | 1.1 | 1 | 0.976 | 0.974
14 | NCI-H1437 | 0.366 | 0.33 | 0.361 | 0.296 | 0.408 | 1.12 | 1.12 | 1.08 | 1.08 | 1.16 | 1.35 | 1.21 | 1.14 | 1.03 | 0.555 | 0.511 | 0.494 | 0.525
15 | NCI-H1651 | 0.436 | 0.661 | 0.572 | 0.479 | 0.558 | 0.306 | 0.459 | 0.452 | 0.464 | 0.48 | 1.22 | 0.885 | 0.912 | 0.86 | 0.85 | 0.862 | 0.765 | 0.855
16 | NCI-H1666 | 0.716 | 0.984 | 0.793 | 0.859 | 0.871 | 0.803 | 0.777 | 0.843 | 0.892 | 0.783 | 0.872 | 0.891 | 0.797 | 0.595 | 0.909 | 0.868 | 0.862 | 0.914

— the supplement of paper PMC10307832
